The record followed here is PMC10876879, “Sustained silencing peanut allergy by xanthopurpurin is associated with suppression of peripheral and bone marrow IgE-producing B cell” (Frontiers in Immunology, 2024).

Molecules are shown by their SMILES. Values after ≈ are worked out from the molar mass of the structure shown.

For one data set, the system named is ARH-77 cells. Kind of data set: Cell viability of ARH-77 cells by trypan blue exclusion. The note with it: XPP 2.5-40 μg/mL. The format is cell-based, human. The protocol: Cell viability was evaluated using the trypan blue exclusion assay. Briefly, 10µL of ARH-77 cells at each testing condition was mixed with 10 µL of trypan blue dye. The mixture was then loaded into a hemocytometer and the viable cells were counted under a microscope. The percentage of viable cells was calculated as follows: Viable cells (%) = (total number of viable cells) / (total number of cells) × 100.

Data set [1] relates to IgE production by U266 cells. Kind of data set: IgE production by human myeloma U266 cells, IgE ELISA of supernatants. The format is cell-based. The procedure: The human myeloma cell line (U266), purchased from ATCC (American Type Culture Collection; Rockville, MD), has been used to test different herb extracts and purified compounds for their IgE inhibitory effects ([31]). 2×10^5 cells/mL of cells were cultured at 37°C under 5% CO2 in complete media containing RPMI 1640 medium supplemented, 10% FBS, 1 mM sodium pyruvate, 1×10^-5 M β-ME and 0.5% penicillin-streptomycin. XPP at 0, 2.5, 5, 10, 20 and 40 μg/mL were added at day 0. After 6 days, supernatants were harvested and IgE levels were measured by using an ELISA Kit (Mabtech Inc, OH). Briefly, samples and standards were added into prewashed 96-well plate coated with capture monoclonal antibodies (mAbs). After 2-hour incubation at room temperature, plate was washed 5 times and incubated with detection mAb for 1 hour. The plate was then washed for 5 times and incubated with streptavidin-HRP for 1hour at room temperature. The plate was then washed and developed with TMB substrate for 15 min. The optical density was measured using ELISA reader at 450nm. IgE concentrations were calculated based on the standard curve.
S Figure 2. The IgE inhibitory effect of five fractions from R.cordifolia. U266 cells (2 × 10^5 cells/mL) were co-incubated with each fraction at the concentration of 10 μg/mL for 6 days. The supernatants were harvested and IgE levels were measured by ELISA. The inhibition percentage was calculated using the equation “% inhibition = (1- IgE level each fr / IgE level non-treated ) x 100%”.

In data set [2] the test system is U266 cells. The data set is described as follows: RNA sequencing of XPP-treated U266 cells. It counts as cell-based, human. The conditions noted are these: XPP 10 μg/mL, 3 days. The procedure: U266 cells were treated with XPP at 10 μg/mL. After 3 days of treatment, cells were collected and total RNA was isolated using Qiagen RNeasy MiniKits following the manufacturer’s instructions. The purity of total RNA was analyzed and the RNA-Seq was performed with an Illumina HiSeq2500 instrument at the Genomics Core facility at Icahn School of Medicine at Mount Sinai. Counts were converted to Log2 counts per million and normalized. A log2 fold change was calculated and the gene list with values ≥ 2 or ≤ -2 were uploaded to DAVID bioinformatic system for functional analysis.

Data set [3] has as its system U266 cells. Kind of data set: Cell viability of U266 cells by trypan blue exclusion. The conditions noted are these: all concentrations tested (2.5-40 µg/mL). The format is cell-based, human. The procedure: Cell viability was evaluated using a trypan blue exclusion as previously described ([31]). Briefly, a 10µL of cells suspension from each culture was mixed with equal volume of trypan blue dye. The mixture was loaded into a hemocytometer and cells were counted under a microscope. The percentage of viable cells was calculated as follows: Viable cells (%) = (total number of viable cells)/(total number of cells) × 100.

Data set [4] has as its system splenocytes (SPCs) and mesenteric lymph node (MLN) cells. Kind of data set: Cytokines in CPE-stimulated splenocyte and MLN cell cultures from treated mice (Model #2), ELISA. The format is in vivo, C3H/HeJ mice. The note with it: model #2, CPE stimulation, vs sham. The procedure: Mice were sacrificed at the end of each experiment. The splenocytes (SPCs) and mesenteric lymph node (MLN) cells of each mouse was collected as previously described ([37]). Cells (4 x10^6/well/mL) were cultured in 24 well plates in the presence or absence of CPE (200 µg/mL). After 72 hrs of incubation at 37°C under 5% CO2, supernatants were collected. Cytokine levels were measured using ELISA kits in triplicate according to the manufacturer’s instructions (BD Biosciences, San Jose, CA and R&D systems, Minneapolis, MN).

Another data set has as its system IgE+ B cells. Kind of data set: Flow cytometry of IgE+ B cells in spleen and bone marrow of treated mice (Model #2). The format is in vivo, C3H/HeJ mice. The note with it: model #2, vs sham. The protocol:
Single cell suspensions of spleen, bone marrow from two femurs and heparinized peripheral blood were isolated in AIM-V medium. Erythrocytes were lysed with red cell lysing buffer (Sigma-Aldrich, St. Louis, MO). For staining, cells were suspended in ice cold staining buffer (PBS including 0.5 mM EDTA, 0.05 mM Sodium Azide, 0.5% BSA). Surface staining was performed by incubating cells with unlabeled anti-IgE (to block membrane IgE), BV605 anti-B220, BV711-anti-CD3, anti-CD16/32 (Fc-block), all from BD Biosciences, CA). Live-dead discriminating dye (Live-Dead Aqua, Invitrogen, CA) was included. After incubation, cells were washed and suspended in fixation/permeabilization buffer for 15 mins. Cells were washed with permeabilization buffer and incubated with Fitc-anti IgE in permeabilization buffer for 30 mins in the dark on ice. After washing, cells were treated with Cytofix buffer for 15 mins for post-fixation and then washed 3 times with staining buffer and finally resuspended in 200 µL staining buffer for cell acquisition on LSRII flow cytometer (BD Bioscience, San Jose, CA). Flow cytometry analysis was performed using Flow Jo 5.4 software (Tree Star Inc., Ashland, Oregon) as follows. […] From live cell gate, all IgE+ (Fitc-IgE) cells were gated and subsequently analyzed for IgE+ B cells (Fitc-IgE +; BV605-B220+ cells).

The next data set has as its system naïve C3H/HeJ mice. Kind of data set: Sub-chronic toxicity assay. The format is in vivo. The protocol: For acute toxicity analysis, naïve C3H/HeJ mice were fed with 4 mg of XPP per mouse, which is10 times of the daily dose. […] In the sub-chronic toxicity assay, naïve C3H/HeJ mice were fed with 5 times their daily therapeutic dose (2 mg/day) for 14 days. Control group mice (sham) were fed with water. Blood samples were collected at the end of each experiment. Blood urea nitrogen (BUN) and alanine aminotransferase (ALT) measurements for the evaluation of kidney and liver functions respectively and complete blood count (CBC) testing were performed by ALX laboratories, NY.

In the case of `O=C1c2ccccc2C(=O)c2c(O)cc(O)cc21` [XPP, xanthopurpurin], the “Toxicity / cell viability of ARH-77 cells” value with ARH-77 cells is given as “No toxicity was observed”. The same compound displayed a 50% inhibitory concentration (IC50) in data set [1] (Homo sapiens, U-266, 144 h, 6 days culture, IgE ELISA) of 9 µg/mL (≈ 37.5 µM). In addition, in data set [1] (U266 cells, 6 days), the “XPP concentration at which complete inhibition of IgE production was observed” value is 40 µg/mL and the “XPP concentration at which inhibition of IgE was first observed” value was determined as 2.5 µg/mL. In data set [1] (U266 cells, 6 days, p < 0.01), the “XPP concentration reaching statistically significant inhibition of IgE” value is 10 µg/mL. Moreover, the “IgE production by U266 cells” value in data set [1] (XPP 2.5-40 µg/mL, 6 days) is listed as “inhibited the IgE production by U266 cells in a dose-dependent manner”. Besides, in the data set on U266 cells [2], the “Number of genes downregulated (RNA-Seq)” value turned out to be 5094 genes and the “Number of genes upregulated (RNA-Seq)” value turned out to be 4009 genes. Besides, the “Toxicity / cell viability of U266 cells (trypan blue)” value in the data set with U266 cells [3] is listed as “No toxicity was observed at any concentration tested”. Further, in data set [4] (72 hrs), the “IL-4 level in MLN cultures” value is given as “significantly inhibited IL-4 level” and the “IL-4 level in splenocyte cultures” value is “significantly inhibited IL-4 level”. In data set [4], the “IFN-γ production in MLN cultures” value is “no significant differences”, the “IFN-γ production in SPC cultures” value is given as “no significant differences”, the “IL-10 production in MLN cultures” value was “no significant differences” and the “IL-10 production in SPC cultures” value is reported as “no significant differences”. Further, the “Percentage of IgE+ B cells (over all IgE+ cells) in bone marrow” value in the data set on IgE+ B cells (p < 0.001) is reported as “significantly reduced”. Moreover, the “Percentage of IgE+ B cells (over all IgE+ cells) in spleen” value with IgE+ B cells (p < 0.01) is “significantly reduced”. The “CBC: white blood cell, red blood cell, hemoglobin and platelet levels vs control group and normal range” value with naïve C3H/HeJ mice (mouse, in vivo) was “within the normal range and similar to the control group”. The “Deaths, abnormal behavior or diarrhea” value in the data set with naïve C3H/HeJ mice (sub-chronic, 5 times (2 mg/day) for 14 consecutive days) is “No deaths and abnormal behavior or diarrhea were observed either”. The compound also yielded a Mortality in the data set with naïve C3H/HeJ mice (sub-chronic, 5x dose (2 mg/day/mouse) for 14 days) of 0.00%.

As usually defined, the IC50 is the concentration at which inhibition is half-maximal. The low end stands for higher potency, the high end for lower potency.
